Measurements from ChEMBL document CHEMBL4837226, “Discovery of pyrrole derivatives for the treatment of glioblastoma and chronic myeloid leukemia” (Eur J Med Chem, 2021).
Structures can show the parent of a compound that is named as a salt.

Columns and labels:
Tubulin (Homo sapiens) [1] = biological target: T1, Tubulin (Homo sapiens) (UniProt P68371+Q9H4B7+P0DPH7+P68366+Q13509+Q71U36+P04350+Q3ZCM7+P07437+P68363+Q9BQE3+Q6PEY2+Q13885+Q9BVA1+Q9BUF5); assay: Inhibition of [3H]Colchicine binding to tubulin (unknown origin) at 5 uM measured after 10 mins by DEAE-Cellulose filter method relative to control; assay type: protein-complex assay
Tubulin = assay: Inhibition of tubulin polymerization (unknown origin) assessed as reduction in tubulin assembly preincubated for 15 mins followed by GTP addition by spectrophotometric method; assay type: protein-complex assay, Homo sapiens
MCF7 = assay: Cytotoxicity against human MCF7 cells assessed as cell growth inhibition measured after 96 hrs; assay type: functional, cell-based; conditions: MCF7, 96 h
Tubulin (Homo sapiens) [2] = biological target: T1, Tubulin (Homo sapiens); assay: Inhibition of [3H]Colchicine binding to tubulin (unknown origin) at 1 uM measured after 10 mins by DEAE-Cellulose filter method relative to control; assay type: protein-complex assay
KBM5 [3] = assay: Cytotoxicity against Imatinib mesylate sensitive wild-type human KBM5 cells assessed as cell growth inhibition measured after 48 hrs by MTT assay; assay type: functional, cell-based; conditions: KBM5, 48 h
KBM5 [4] = assay: Cytotoxicity against imatinib mesylate resistant wild-type human KBM5 cells expressing T315I mutant assessed as cell growth inhibition measured after 48 hrs by MTT assay; assay type: functional, cell-based; conditions: KBM5, 48 h
KU812 cell line = assay: Cytotoxicity against Bcr-Abl expressing human KU812 cells assessed as cell growth inhibition measured after 48 hrs by MTT assay; assay type: functional, cell-based; conditions: KU812, 48 h
U-87 MG [5] = assay: Cytotoxicity against human U-87MG cells assessed as cell growth inhibition by measuring maximum efficacy measured after 48 hrs by MTS colorimetric assay relative to control; assay type: functional, U-87MG ATCC
SW480 = assay: Cytotoxicity against human SW480 cells assessed as cell growth inhibition measured after 48 hrs by XTT dye based assay; assay type: functional; conditions: SW480, 48 h
[6] = Cytotoxicity against human U343MG cells assessed as cell growth inhibition by measuring maximum efficacy measured after 72 hrs by MTS colorimetric assay relative to control; assay type: functional; conditions: U-343MG
U-87 MG [7] = assay: Cytotoxicity against human U-87MG cells assessed as cell growth inhibition measured after 48 hrs by MTS colorimetric assay; assay type: functional, cell-based, U-87MG ATCC
SW-620 = assay: Cytotoxicity against human SW-620 cells assessed as cell growth inhibition measured after 48 hrs by XTT dye based assay; assay type: functional; conditions: SW-620, 48 h
[8] = Cytotoxicity against human U-343MG cells assessed as cell growth inhibition measured after 72 hrs by MTS colorimetric assay; assay type: functional, cell-based

Compound	inhibition (Tubulin (Homo sapiens) [1])	IC50 (Tubulin)	IC50 (MCF7)	inhibition (Tubulin (Homo sapiens) [2])	further results
COc1cc(C(=O)c2cn(-c3ccc(F)cc3)cc2-c2ccccn2)cc(OC)c1OC	44%	0.82 µM	0.073 µM		
COc1cc(C(=O)c2cn(-c3cccc(C)c3)cc2-c2ccsc2)cc(OC)c1OC	74%	0.52 µM	0.065 µM		
COc1cc(C(=O)c2cn(-c3ccc(C)cc3)cc2-c2ccncc2)cc(OC)c1OC	94%	0.44 µM	0.009 µM	70%	
COc1cc(C(=O)c2cn(-c3cccc(C)c3)cc2-c2nccs2)cc(OC)c1OC	83%	0.49 µM	0.02 µM		
COc1cc(C(=O)c2cn(-c3ccc(F)cc3)cc2-c2ccoc2)cc(OC)c1OC	87%	0.38 µM	0.015 µM	71%	
COc1cc(C(=O)c2cn(-c3ccc(C)cc3)cc2-c2nccs2)cc(OC)c1OC	91%	0.56 µM	0.014 µM	63%	
COc1cc(C(=O)c2cn(-c3cccc(C)c3)cc2-c2ccccn2)cc(OC)c1OC	66%	0.78 µM	0.14 µM		
COc1cc(C(=O)c2cn(-c3ccc(F)cc3)cc2-c2ccsc2)cc(OC)c1OC	76%	0.55 µM	0.015 µM		
COc1cc(C(=O)c2cn(-c3ccc(C)cc3)cc2-c2ccccn2)cc(OC)c1OC	83%	0.46 µM	0.036 µM		
COc1cc(C(=O)c2cn(-c3cccc(C)c3)cc2-c2ccncc2)cc(OC)c1OC	88%	0.59 µM	0.065 µM		
COc1cc(C(=O)c2cn(-c3ccc(F)cc3)cc2-c2ncco2)cc(OC)c1OC	68%	1.4 µM	0.093 µM		
COc1cc(C(=O)c2cn(-c3ccc(F)cc3)cc2-c2ccco2)cc(OC)c1OC	82%	0.47 µM	0.017 µM		
Cc1ccc(C(=O)Nc2ccc(CN3CCN(C)CC3)c(C(F)(F)F)c2)cc1C#Cc1cnc2cccnn12 [PONATINIB]					IC50 (KBM5 [3]): 0.0102 µM; IC50 (KBM5 [4]): 0.0106 µM; IC50 (KU812 cell line): 0.0085 µM
COc1cc(C(=O)c2cn(-c3cccc(C)c3)cc2-c2cccnc2)cc(OC)c1OC	78%	0.74 µM	0.052 µM		
COc1cc(C(=O)c2cn(-c3ccc(C)cc3)cc2-c2ncco2)cc(OC)c1OC	90%	0.72 µM	0.042 µM	45%	
COc1cc(C(=O)c2cn(-c3ccc(C)cc3)cc2-c2ccoc2)cc(OC)c1OC	95%	0.47 µM	0.018 µM	71%	
COc1cc(C(=O)c2cn(-c3ccc(C)cc3)cc2-c2ccco2)cc(OC)c1OC	92%	0.46 µM	0.022 µM	71%	
COc1cc(C(=O)c2cn(-c3ccc(F)cc3)cc2-c2ccncc2)cc(OC)c1OC	87%	0.58 µM	0.009 µM		Emax (U-87 MG [5]): 56%; IC50 (SW480): 0.934 µM; Emax [6]: 75.1%; IC50 (KBM5 [3]): 0.0122 µM; IC50 (KBM5 [4]): 0.0131 µM; IC50 (KU812 cell line): 0.0124 µM; IC50 (U-87 MG [7]): 0.0391 µM; IC50 (SW-620): 0.0665 µM; IC50 [8]: 0.432 µM
COc1cc(C(=O)c2cn(-c3ccc(C)cc3)cc2-c2cccnc2)cc(OC)c1OC	92%	0.64 µM	0.019 µM	58%	
COc1cc(C(=O)c2cn(-c3ccc(F)cc3)cc2-c2cccnc2)cc(OC)c1OC	80%	0.56 µM	0.039 µM		
COc1cc(C(=O)c2cn(-c3cccc(C)c3)cc2-c2ccco2)cc(OC)c1OC	80%	0.56 µM	0.023 µM		
COc1cc(C(=O)c2cn(-c3ccc(F)cc3)cc2-c2nccs2)cc(OC)c1OC	69%	0.78 µM	0.022 µM		
Cc1ccc(NC(=O)c2ccc(CN3CCN(C)CC3)cc2)cc1Nc1nccc(-c2cccnc2)n1 [IMATINIB MESYLATE]					IC50 (KBM5 [3]): 0.152 µM; IC50 (KBM5 [4]): 0.311 µM; IC50 (KU812 cell line): 0.311 µM
COc1cc(C(=O)c2cn(-c3cccc(C)c3)cc2-c2ncco2)cc(OC)c1OC	77%	0.72 µM	0.075 µM		
COc1cc(C(=O)c2cn(-c3cccc(C)c3)cc2-c2ccoc2)cc(OC)c1OC	87%	0.42 µM	0.021 µM	64%	
